Where a name gives a salt, the structure may show the parent alone.
Row | melting point [°C] | SMILES
1 | 171 | COCCNC(=O)Nc1nc2cc(OS(=O)(=O)c3c(Cl)cccc3Cl)ccc2[nH]1 (as salt: benzenesulfonate) [Example 1, 2-{[(2-methoxyethyl)carbamoyl]amino}-1H-benzimidazol-5-yl 2,6-dichlorobenzenesulfonate]
2 | 149 | O=C(NCCN1CCOCC1)Nc1nc2cc(OS(=O)(=O)c3c(Cl)cccc3Cl)ccc2[nH]1 (as salt: benzenesulfonate) [Example 5, 2-{[(2-Morpholin-4-ylethyl)carbamoyl]amino}-1H-benzimidazol-5-yl 2,6-dichlorobenzenesulfonate]
3 | 160 to 165 | O=C(Nc1nc2cc(OS(=O)(=O)c3c(Cl)cccc3Cl)ccc2[nH]1)NC1CC1 (as salt: benzenesulfonate) [Example 12, 2-[(Cyclopropylcarbamoyl)amino]-1H-benzimidazol-5-yl 2,6-dichlorobenzenesulfonate]
4 | 210 | O=C(NCc1cccnc1)Nc1nc2cc(OS(=O)(=O)c3c(Cl)cccc3Cl)ccc2[nH]1 (as salt: benzenesulfonate) [Example 16, 2-{[(Pyridin-3-ylmethyl)carbamoyl]amino}-1H-benzimidazol-5-yl 2,6-dichlorobenzenesulfonate]
5 | 165 to 170 | O=C(NCc1ccncc1)Nc1nc2cc(OS(=O)(=O)c3c(Cl)cccc3Cl)ccc2[nH]1 (as salt: benzenesulfonate) [Example 17, 2-{[(Pyridin-4-ylmethyl)carbamoyl]amino}-1H-benzimidazol-5-yl 2,6-dichlorobenzenesulfonate]
6 | 195 | O=C(NCc1ccccc1)Nc1nc2cc(OS(=O)(=O)c3c(Cl)cccc3Cl)ccc2[nH]1 (as salt: benzenesulfonate) [Example 18, 2-[(Benzylcarbamoyl)amino]-1H-benzimidazol-5-yl 2,6-dichlorobenzenesulfonate]
7 | 180 | CN1CCN(CCNC(=O)Nc2nc3cc(OS(=O)(=O)c4c(Cl)cccc4Cl)ccc3[nH]2)CC1 (as salt: benzenesulfonate) [Example 20, 2-({[2-(4-Methylpiperazin-1-yl)ethyl]carbamoyl}amino)-1H-benzimidazol-5-yl 2,6-dichlorobenzenesulfonate]
8 | 145 to 150 | O=C(NCCN1CCNCC1)Nc1nc2cc(OS(=O)(=O)c3c(Cl)cccc3Cl)ccc2[nH]1 (as salt: benzenesulfonate) [Example 21, 2-{[(2-piperazin-1-ylethyl)carbamoyl]amino}-1H-benzimidazol-5-yl 2,6-dichlorobenzenesulfonate]
9 | 165 | O=C(NCCC1CCNCC1)Nc1nc2cc(OS(=O)(=O)c3c(Cl)cccc3Cl)ccc2[nH]1 (as salt: benzenesulfonate) [Example 22, 2-{[(2-Piperidin-4-ylethyl)carbamoyl]amino}-1H-benzimidazol-5-yl 2,6-dichlorobenzenesulfonate]
10 | 242 | O=C(Nc1nc2cc(OS(=O)(=O)c3c(Cl)cccc3Cl)ccc2[nH]1)C1CC1 (as salt: benzenesulfonate) [Example 24, 2-[(Cyclopropylcarbonyl)amino]-1H-benzimidazol-5-yl 2,6-dichlorobenzenesulfonate]
11 | 135 | O=C(CCC1CCNCC1)Nc1nc2cc(OS(=O)(=O)c3c(Cl)cccc3Cl)ccc2[nH]1 (as salt: benzenesulfonate) [Example 27, 2-[(3-Piperidin-4-ylpropanoyl)amino]-1H-benzimidazol-5-yl 2,6-dichlorobenzenesulfonate]
12 | 128 | O=C(Nc1nc2ccc(OS(=O)(=O)c3c(Cl)cccc3Cl)cc2s1)NC1CC1 (as salt: benzenesulfonate) [Example 31, 2-[(Cyclopropylcarbamoyl)amino]-1,3-benzothiazol-6-yl 2,6-dichlorobenzenesulfonate]

The next lines start with the compound.

Row | SMILES | melting point [°C]
13 | CN1CCN(c2ccc(CNC(=O)Nc3nc4ccc(OS(=O)(=O)c5c(Cl)cccc5Cl)cc4s3)cc2)CC1 (as salt: benzene-sulfonate) [Example 52, 2-({[4-(4-methylpiperazin-1-yl)benzyl]carbamoyl}amino)-1,3-benzothiazol-6-yl 2,6-dichlorobenzene-sulfonate] | 88
14 | COCCNC(=O)Nc1nc2cc(OS(=O)(=O)c3c(C)cccc3Cl)ccc2[nH]1 (as salt: benzenesulfonate) [Example 2, 2-{[(2-Methoxyethyl)carbamoyl]amino}-1H-benzimidazol-5-yl 2-chloro-6-methylbenzenesulfonate] | 138
15 | COCCNC(=O)Nc1nc2cc(OS(=O)(=O)c3c(C)cc(C)cc3C)ccc2[nH]1 (as salt: benzenesulfonate) [Example 3, 2-{[(2-Methoxyethyl)carbamoyl]amino}-1H-benzimidazol-5-yl 2,4,6-trimethylbenzenesulfonate] | 140
16 | O=C(NCCN1CCOCC1)Nc1nc2cc(OS(=O)(=O)c3c(F)cccc3F)ccc2[nH]1 (as salt: benzenesulfonate) [Example 9, 2-{[(2-Morpholin-4-ylethyl)carbamoyl]amino}-1H-benzimidazol-5-yl 2,6-difluorobenzenesulfonate] | 190 to 192
17 | O=C(NCc1ccccn1)Nc1nc2cc(OS(=O)(=O)c3c(Cl)cccc3Cl)ccc2[nH]1 (as salt: benzenesulfonate) [Example 15, 2-{[(Pyridin-2-ylmethyl)carbamoyl]amino}-1H-benzimidazol-5-yl 2,6-dichlorobenzenesulfonate] | 204
18 | O=C(NCCc1cccnc1)Nc1nc2cc(OS(=O)(=O)c3c(Cl)cccc3Cl)ccc2[nH]1 (as salt: benzenesulfonate) [Example 19, 2-{[(2-Pyridin-3-ylethyl)carbamoyl]amino}-1H-benzimidazol-5-yl 2,6-dichlorobenzenesulfonate] | 131
19 | CC(C)(C)OC(=O)Nc1nc2cc(OS(=O)(=O)c3c(Cl)cccc3Cl)ccc2[nH]1 (as salt: benzenesulfonate) [Example 23, 2-[(tert-Butoxycarbonyl)amino]-1H-benzimidazol-5-yl 2,6-dichlorobenzenesulfonate] | 205
20 | O=C(CCc1cccnc1)Nc1nc2cc(OS(=O)(=O)c3c(Cl)cccc3Cl)ccc2[nH]1 (as salt: benzenesulfonate) [Example 25, 2-[(3-Pyridin-3-ylpropanoyl)amino]-1H-benzimidazol-5-yl 2,6-dichlorobenzenesulfonate] | 188
21 | O=C(CCC1CCN(C(=O)c2ccccc2)CC1)Nc1nc2cc(OS(=O)(=O)c3c(Cl)cccc3Cl)ccc2[nH]1 (as salt: benzenesulfonate) [Example 26, 2-{[3-(1-Benzoylpiperidin-4-yl)propanoyl]amino}-1H-benzimidazol-5-yl 2,6-dichlorobenzenesulfonate] | 135
22 | O=C(Nc1nc2cc(OS(=O)(=O)c3c(F)cccc3F)ccc2[nH]1)C1CC1 (as salt: benzenesulfonate) [Example 29, 2-[(Cyclopropylcarbonyl)amino]-1H-benzimidazol-5-yl 2,6-difluorobenzenesulfonate] | 174
23 | O=C(NCc1ccccn1)Nc1nc2ccc(OS(=O)(=O)c3c(Cl)cccc3Cl)cc2s1 (as salt: benzenesulfonate) [Example 30, 2-{[(Pyridin-2-ylmethyl)carbamoyl]amino}-1,3-benzothiazol-6-yl 2,6-dichlorobenzenesulfonate] | 118
24 | O=C(NCCC1CCN(Cc2ccccc2)CC1)Nc1nc2ccc(OS(=O)(=O)c3c(Cl)cccc3Cl)cc2s1 (as salt: benzenesulfonate) [Example 33, 2-({[2-(1-Benzylpiperidin-4-yl)ethyl]carbamoyl}amino)-1,3-benzothiazol-6-yl 2,6-dichlorobenzenesulfonate] | 105
25 | O=C(NCCN1CCN(Cc2ccccc2)CC1)Nc1nc2ccc(OS(=O)(=O)c3c(Cl)cccc3Cl)cc2s1 (as salt: benzenesulfonate) [Example 34, 2-({[2-(4-Benzylpiperazin-1-yl)ethyl]carbamoyl}amino)-1,3-benzothiazol-6-yl 2,6-dichlorobenzenesulfonate] | 102
26 | O=C(NCCN1CCNCC1)Nc1nc2ccc(OS(=O)(=O)c3c(Cl)cccc3Cl)cc2s1 (as salt: benzenesulfonate) [Example 36, 2-{[(2-piperazin-1-ylethyl)carbamoyl]amino}-1,3-benzothiazol-6-yl 2,6-dichlorobenzenesulfonate] | 158
27 | O=C(NCCN1CCOCC1)Nc1nc2ccc(OS(=O)(=O)c3ccccc3Cl)cc2s1 (as salt: benzenesulfonate) [Example 40, 2-{[(2-Morpholin-4-ylethyl)carbamoyl]amino}-1,3-benzothiazol-6-yl 2-chlorobenzenesulfonate] | 100
28 | O=C(Nc1nc2ccc(OS(=O)(=O)c3c(F)cccc3F)cc2s1)C1CC1 (as salt: benzenesulfonate) [Example 41, 2-[(Cyclopropylcarbonyl)amino]-1,3-benzothiazol-6-yl 2,6-difluorobenzenesulfonate] | 145
29 | O=C(CCc1cccnc1)Nc1nc2ccc(OS(=O)(=O)c3c(Cl)cccc3Cl)cc2s1 (as salt: benzenesulfonate) [Example 43, 2-[(3-Pyridin-3-ylpropanoyl)amino]-1,3-benzothiazol-6-yl 2,6-dichlorobenzenesulfonate] | 240
30 | O=C(CCN1CCOCC1)Nc1nc2ccc(OS(=O)(=O)c3c(Cl)cccc3Cl)cc2s1 (as salt: benzenesulfonate) [Example 44, 2-[(3-Morpholin-4-ylpropanoyl)amino]-1,3-benzothiazol-6-yl 2,6-dichlorobenzenesulfonate] | 179
31 | O=C(Cc1cccnc1)Nc1nc2ccc(OS(=O)(=O)c3c(Cl)cccc3Cl)cc2s1 (as salt: benzenesulfonate) [Example 45, 2-[(Pyridin-3-ylacetyl)amino]-1,3-benzothiazol-6-yl 2,6-dichlorobenzenesulfonate] | 218
32 | O=C(CCC1CCNCC1)Nc1nc2ccc(OS(=O)(=O)c3c(Cl)cccc3Cl)cc2s1 (as salt: benzenesulfonate) [Example 47, 2-[(3-Piperidin-4-ylpropanoyl)amino]-1,3-benzothiazol-6-yl 2,6-dichlorobenzenesulfonate] | 134
